Results on 7 compounds are retold here after patent publication US4929626A, “α-substituted 4-(quinolin-2-yl-methoxy)phenylacetic acids and esters and lipoxygenase inhibition therewith” (Bayer Aktiengesellschaft, priority 1988, dated 1990).

In one experiment the test system is lipoxygenase. Briefly: Lipoxygenase inhibition: release of leukotriene B4 (LTB4) by polymorphonuclear rat leukocytes (PMN) after Ca ionophore, reverse phase HPLC. The experiment is classed as cell-based. How it is done:
(§1) The pharmacological activity data of the substances according to the invention are determined by the following method: As a measure of the lipoxygenase inhibition, the release of leukotriene B4 (LTB4) by polymorphonuclear rat leukocytes (PMN) was determined after addition of substances and Ca ionophore by means of reverse phase HPLC according to Borgeat, P. et al., Proc. Nat. Acad. Sci. 76, 2148-2152 (1979). The in vivo activity of the compounds was determined using the mouse ear inflammation model according to Young, J. M. et al., J. of Investigative Dermatology 82, 367-371 (1984).

The next experiment deals with mouse ear inflammation. The experiment is described as follows: Mouse ear inflammation model (in vivo activity). Particulars: 100 mg/kg p.o. How it is done:
as §1

Structures can show the parent of a compound that is named as a salt.

Regarding `CCCCC(C(=O)OCC(=O)O)c1ccc(OCc2ccc3ccccc3n2)cc1` (stereo not shown) [Example 29, Carboxymethyl 2-[4-(quinolin-2-yl-methoxy)phenyl]caproate], it took 55 nM to reach half-maximal inhibition in the experiment on lipoxygenase (IC50). In the experiment with mouse ear inflammation, the “Inhibition of inflammation %” value stood at 72%.
`C/C=C/CC(C(=O)OC)c1ccc(OCc2ccc3ccccc3n2)cc1` (stereo not shown) [Example 12, Methyl E-2-[4-(quinolin-2-yl-methoxy)phenyl]-4-hexenoate]: in the experiment on mouse ear inflammation, the “Inhibition of inflammation %” value came to 59%.
On to `CC(C)=CCC(C(=O)O)c1ccc(OCc2ccc3ccccc3n2)cc1` (stereo not shown) [Example 22, 2-[4-(Quinolin-2-yl-methoxy)phenyl]-5-methyl-4-hexenoic acid], for which the “Inhibition of inflammation %” value with mouse ear inflammation is recorded as 77%.
`CCCCC(C(=O)OCC(=O)OC)c1ccc(OCc2ccc3ccccc3n2)cc1` (stereo not shown) [Example 27, Methoxycarbonylmethyl 2-[4-(quinolin-2-yl-methoxy)phenyl]caproate hydrochloride] yielded a concentration for half-maximal inhibition (IC50) with lipoxygenase of 63 nM.
In the case of `CCCCCC(O)c1cccc(OCc2ccc3ccccc3n2)c1` (stereo not shown) [2-[3-(1-hydroxyhexyl)phenoxymethyl]quinoline, reference compound], the IC50 in the experiment with lipoxygenase came out at 200 nM. Moreover, in the experiment with mouse ear inflammation, the “Inhibition of inflammation %” value is listed as 24%.
Consider `CCCCCC(C(=O)OC)c1ccc(OCc2ccc3ccccc3n2)cc1` (stereo not shown) [Example 10, Methyl 2-[4-(quinolin-2-yl-methoxy)phenyl]heptanoate], for which the “Inhibition of inflammation %” value in the experiment on mouse ear inflammation was determined as 61%.
`CCCCC(C(=O)O)c1ccc(OCc2ccc3ccccc3n2)cc1` (stereo not shown) [Example 20, 2-[4-(Quinolin-2-yl-methoxy)phenyl]caproic acid] showed an IC50 in the experiment on lipoxygenase of 55 nM. The “Inhibition of inflammation %” value with mouse ear inflammation was 68%.

For orientation: IC50 means the concentration that gives 50% inhibition. A higher IC50 goes with weaker potency.
